This is an account of results in US7759321B2, “Compounds for the treatment of pain” (Cambridge Biotechnology Ltd, priority 2003, dated 2010).

The structures appear in SMILES notation.

Data set [1] has as its system carrageenan (CGN) induced thermal hyperalgesia. The data set can be described thus: Carrageenan induced thermal hyperalgesia (CITH). Particulars: 0.624 mg/kg p.o. It is filed as in vivo. The procedure: Carrageenan (2%, 10 microlitres) was administered into the right hind paw. A heat source was placed close to the treated and untreated hind paws, and the difference in the paw withdrawal latencies is shown. Spongosine was administered at the same time as carrageenan.

The subject of another data set is normal rats. The experiment in a line: Blood pressure and heart rate by implantable radiotelemetry. It is filed as in vivo, rat. The conditions noted are these: 0.624 mg/kg p.o. The source says: An implantable radiotelemetry device was placed in the abdominal cavity of 6 rats per group. The pressure catheter of the device was inserted in the abdominal aorta and two electrodes tunnelised under the skin in a lead II position (left side of abdominal cavity/right shoulder). Individual rats were placed in their own cage on a radioreceptor (DSI) for data acquisition. A: blood pressure; B: heart rate.

The test system of data set [2] is normal physiological nociception. The data set can be described thus: Normal physiological nociception after administration. It is filed as in vivo. The text has this: Compounds of formula (I) are believed to be effective in inhibiting pain perception in mammals suffering from pain, in particular neuropathic and inflammatory pain, even when administered at doses expected to give plasma concentrations well below those known to activate adenosine receptors. […] Therefore, compounds of formula (I) can treat pain (particularly neuropathic and inflammatory pain) without causing the significant side effects associated with administration of other adenosine receptor agonists, and also without reducing normal sensory perception.

Another data set relates to rats. Particulars: cited from earlier work.
For data set [3], the system named is static allodynia in a model of neuropathic pain. The data set can be described thus: Static allodynia in a model of neuropathic pain (paw withdrawal threshold). It is filed as in vivo. As to the method:
Spongosine and gabapentin were administered (p.o.) in different proportions as indicated in the drawing. The total dose administered is shown on the horizontal axis, and the paw withdrawal threshold (PWT) on the vertical axis. The predicted anti-hyperalgesic effect (derived from the dose response curves obtained with each agent alone) if the effects of the two compounds are additive is shown (●). The observed effects are indicated by (▪).

The next data set addresses adenosine receptors (Rattus norvegicus, UniProt P30543). The experiment in a line: EC50 at adenosine receptors measured at pH 7.4. It is filed as biochemical.
Data set [4] has as its system chronic constriction injury of the rat sciatic nerve. The data set can be described thus: Chronic constriction injury model of neuropathic pain, thermal hyperalgesia. It is filed as in vivo. Particulars: 0.624 mg/kg p.o. The text has this: After approximately two weeks the rats developed thermal hyperalgesia in the operated leg as judged by the difference in paw withdrawal latencies of the right and left paws.

Data set [5] can be described thus: Plasma concentration over time after administration. It is filed as in vivo, rat. The procedure:
It can be seen that the plasma concentration remains above 2% of the EC50 value for more than 3 hours.

The target of the next data set is rat A2A receptor (Rattus norvegicus, UniProt P30543). Particulars: read-out: EC50 for stimulation of the rat A2A receptor; cited from earlier work.
rat A2A receptor, sequence (P30543 whole entry): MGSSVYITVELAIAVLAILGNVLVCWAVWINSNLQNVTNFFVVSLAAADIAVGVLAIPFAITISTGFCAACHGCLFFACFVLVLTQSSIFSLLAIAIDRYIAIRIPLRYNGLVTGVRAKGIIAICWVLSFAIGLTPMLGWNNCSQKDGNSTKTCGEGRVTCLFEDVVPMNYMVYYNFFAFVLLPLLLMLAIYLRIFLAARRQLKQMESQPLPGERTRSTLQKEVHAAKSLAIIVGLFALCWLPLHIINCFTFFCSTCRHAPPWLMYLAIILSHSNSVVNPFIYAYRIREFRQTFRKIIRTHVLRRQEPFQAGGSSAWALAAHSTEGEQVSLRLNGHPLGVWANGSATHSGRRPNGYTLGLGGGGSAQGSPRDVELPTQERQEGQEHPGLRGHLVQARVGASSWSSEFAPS

adenosine receptors, sequence (P30543 whole entry): as above
Description for adenosine receptors: For the avoidance of doubt, the EC50 value of a compound is defined herein as the concentration of the compound that provokes a receptor response halfway between the baseline receptor response and the maximum receptor response (as determined, for example, using a dose-response curve).
The EC50 value should be determined under standard conditions (balanced salt solutions buffered to pH 7.4). […] The EC50 could also be determined in vivo by measuring adenosine receptor mediated responses in a normal healthy animal, or even in a tissue perfused under normal conditions (i.e. oxygenated blood, or oxygenated isotonic media, also buffered at pH 7.4) in a normal healthy animal.

On to `COc1nc(N)c2ncn([C@@H]3O[C@H](CO)[C@@H](O)[C@H]3O)c2n1` [Spongosine, 2-methoxyadenosine], for which the “Efficacy compared with indomethacin (3 mg/kg p.o.) in carrageenan induced thermal hyperalgesia” value in [1] was “as effective as indomethacin”. Also, in data set [1] (given at the same time as carrageenan (2%, 10 microlitres, right hind paw)), the “Effect on carrageenan induced thermal hyperalgesia (difference in paw withdrawal latencies)” value is reported as “inhibits carrageenan (CGN) induced thermal hyperalgesia”. In the data set with normal rats, the “Effect on blood pressure” value was “no significant effect” and the “Effect on heart rate” value is “no significant effect”. Also, the “Effect on normal physiological nociception” value in data set [2] is on record as “no effect”. The “Biological activities in rats” value in the data set on rats is “muscle relaxant, hypothermic, hypotensive, and anti-inflammatory activity”. Moreover, in data set [3] (1.2 mg/kg p.o., in the presence and absence of naloxone (1 mg/kg s.c.)), the “Effect on static allodynia (paw withdrawal threshold, PWT)” value (shortened to “Effect on static allodynia”) was “inhibits static allodynia”. The “Effect on static allodynia” value in [3] (p.o., Example 6) was “inhibit static allodynia”. Moreover, a half-maximal effect at adenosine receptors (EC50) was put at 3000 nM. Also, in data set [4], the “Effect on thermal hyperalgesia caused by chronic constriction injury (difference in paw withdrawal latencies)” value is “inhibits thermal hyperalgesia” and the “Efficacy compared with carbamazepine (CBZ, 100 mg/kg s.c.) in chronic constriction injury model” value is recorded as “as, or more, effective than carbamazepine”. The “Blood pressure effect if the peak plasma concentration reaches the EC50 value” in data set [5] (last for hours) was “profound reductions in blood pressure”. In addition, in data set [5] (rat, 0.6 mg/kg), the “Time plasma concentration remains above 2% of the EC50 value” was “more than 3 hours”. The half-maximal effective concentration (EC50) (as a rule, the midpoint of the concentration-response curve) on rat A2A receptor was 3000 nM.

`NCC1(CC(=O)O)CCCCC1` [gabapentin, reference compound]: the “Effect on static allodynia” value in data set [3] (p.o., Example 6) is reported as “inhibit static allodynia”.
